Where two headings read alike, the source gives them in different places.
Assays:
OCT2 = OCT2 (Homo sapiens, UniProt O15244); test: In vitro transporter inhibition; type: in vitro ADME
OATP1B3 [1] = molecular target: T1, OATP1B3 (Homo sapiens, UniProt Q9NPD5); test: In vitro transporter substrate assessment; type: in vitro ADME
OATP1B1 [2] = molecular target: T2, OATP1B1 (Homo sapiens, UniProt Q9Y6L6); test: In vitro transporter substrate assessment; type: in vitro ADME
CYP2E1 = CYP2E1 (Homo sapiens, UniProt P05181); test: In vitro CYP inhibition; type: in vitro ADME
[3] = type: in vivo, human; conditions: for estimated lemborexant exposure: population PK model
CYP2B6 [4] = molecular target: CYP2B6 (Homo sapiens, UniProt P20813); type: in vitro ADME; conditions: in vitro
P‐gp [5] = molecular target: T3, P‐gp (Homo sapiens, UniProt P08183); test: In vitro transporter inhibition; type: in vitro ADME
T3 sequence (P08183 whole entry): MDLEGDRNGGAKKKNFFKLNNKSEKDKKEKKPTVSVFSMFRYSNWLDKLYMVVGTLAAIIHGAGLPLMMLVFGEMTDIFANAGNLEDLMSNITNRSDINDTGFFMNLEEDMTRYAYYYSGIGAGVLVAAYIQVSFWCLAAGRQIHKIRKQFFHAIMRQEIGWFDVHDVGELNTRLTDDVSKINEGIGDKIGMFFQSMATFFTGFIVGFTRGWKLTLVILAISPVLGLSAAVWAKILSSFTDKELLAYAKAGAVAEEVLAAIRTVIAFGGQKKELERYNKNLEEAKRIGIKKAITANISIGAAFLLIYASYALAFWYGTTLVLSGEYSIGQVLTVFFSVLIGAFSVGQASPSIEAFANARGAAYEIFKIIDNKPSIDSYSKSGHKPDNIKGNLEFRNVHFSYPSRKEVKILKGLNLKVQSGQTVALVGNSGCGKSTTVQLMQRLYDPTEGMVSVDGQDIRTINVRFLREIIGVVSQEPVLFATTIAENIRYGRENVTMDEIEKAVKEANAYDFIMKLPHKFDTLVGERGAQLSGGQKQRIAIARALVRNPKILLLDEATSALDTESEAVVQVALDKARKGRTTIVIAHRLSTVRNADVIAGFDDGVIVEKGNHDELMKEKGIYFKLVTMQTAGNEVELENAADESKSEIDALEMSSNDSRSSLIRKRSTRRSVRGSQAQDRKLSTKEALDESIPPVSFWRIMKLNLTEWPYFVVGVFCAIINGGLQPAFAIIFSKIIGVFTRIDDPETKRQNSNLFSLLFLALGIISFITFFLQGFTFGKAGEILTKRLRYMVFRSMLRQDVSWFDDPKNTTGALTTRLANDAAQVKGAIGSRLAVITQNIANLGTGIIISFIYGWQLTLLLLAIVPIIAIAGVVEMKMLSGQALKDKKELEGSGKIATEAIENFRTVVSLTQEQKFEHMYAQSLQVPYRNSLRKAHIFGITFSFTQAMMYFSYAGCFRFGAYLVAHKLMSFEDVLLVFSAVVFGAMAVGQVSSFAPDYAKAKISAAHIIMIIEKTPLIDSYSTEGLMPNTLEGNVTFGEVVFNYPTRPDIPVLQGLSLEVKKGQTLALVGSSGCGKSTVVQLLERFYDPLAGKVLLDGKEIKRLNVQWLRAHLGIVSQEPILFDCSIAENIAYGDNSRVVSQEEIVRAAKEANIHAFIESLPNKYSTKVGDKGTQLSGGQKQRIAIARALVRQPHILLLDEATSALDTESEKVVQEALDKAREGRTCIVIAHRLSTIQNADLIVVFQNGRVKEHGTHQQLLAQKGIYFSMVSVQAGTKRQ

CYP2B6 [6] = type: in vitro ADME; conditions: in vitro
CYP2C8 = CYP2C8 (Homo sapiens, UniProt P10632); test: In vitro CYP inhibition; type: in vitro ADME
bile salt export pump = bile salt export pump (Homo sapiens, UniProt O95342); test: In vitro transporter inhibition; type: in vitro ADME
CYP2D6 = CYP2D6 (Homo sapiens, UniProt P10635); test: In vitro CYP inhibition; type: in vitro ADME
[7] = Phase 1 DDI study 004 part B: midazolam; conditions: clinically relevant concentrations, daily dosing up to 10 mg
[8] = Phase 1 DDI study 004 part A: lemborexant plasma PK with/without itraconazole; type: in vivo, human
CYP2A6 = CYP2A6 (Homo sapiens, UniProt P11509); test: In vitro CYP inhibition; type: in vitro ADME
CYP1A2 = CYP1A2 (Homo sapiens, UniProt P05177); test: In vitro CYP inhibition; type: in vitro ADME
CYP1A2, sequence (P05177 whole entry): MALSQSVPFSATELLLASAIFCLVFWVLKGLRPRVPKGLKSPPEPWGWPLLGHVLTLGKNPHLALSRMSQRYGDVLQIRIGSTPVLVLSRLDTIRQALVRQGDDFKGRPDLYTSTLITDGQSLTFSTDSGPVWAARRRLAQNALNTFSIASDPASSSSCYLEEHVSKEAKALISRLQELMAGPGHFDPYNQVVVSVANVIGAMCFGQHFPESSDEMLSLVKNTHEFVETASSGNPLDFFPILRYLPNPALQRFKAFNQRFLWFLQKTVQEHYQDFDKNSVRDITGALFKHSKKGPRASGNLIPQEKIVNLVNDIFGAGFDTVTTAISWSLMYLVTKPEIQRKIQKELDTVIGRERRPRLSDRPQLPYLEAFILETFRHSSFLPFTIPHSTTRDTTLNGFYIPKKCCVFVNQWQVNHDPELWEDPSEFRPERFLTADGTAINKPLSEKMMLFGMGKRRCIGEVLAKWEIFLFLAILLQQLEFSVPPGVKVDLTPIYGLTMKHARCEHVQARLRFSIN

CYP3A [9] = type: in vitro ADME; conditions: in vitro metabolism studies; unpublished data
OAT3 = OAT3 (Homo sapiens, UniProt Q8TCC7); test: In vitro transporter inhibition; type: in vitro ADME
OAT3, sequence (Q8TCC7 whole entry): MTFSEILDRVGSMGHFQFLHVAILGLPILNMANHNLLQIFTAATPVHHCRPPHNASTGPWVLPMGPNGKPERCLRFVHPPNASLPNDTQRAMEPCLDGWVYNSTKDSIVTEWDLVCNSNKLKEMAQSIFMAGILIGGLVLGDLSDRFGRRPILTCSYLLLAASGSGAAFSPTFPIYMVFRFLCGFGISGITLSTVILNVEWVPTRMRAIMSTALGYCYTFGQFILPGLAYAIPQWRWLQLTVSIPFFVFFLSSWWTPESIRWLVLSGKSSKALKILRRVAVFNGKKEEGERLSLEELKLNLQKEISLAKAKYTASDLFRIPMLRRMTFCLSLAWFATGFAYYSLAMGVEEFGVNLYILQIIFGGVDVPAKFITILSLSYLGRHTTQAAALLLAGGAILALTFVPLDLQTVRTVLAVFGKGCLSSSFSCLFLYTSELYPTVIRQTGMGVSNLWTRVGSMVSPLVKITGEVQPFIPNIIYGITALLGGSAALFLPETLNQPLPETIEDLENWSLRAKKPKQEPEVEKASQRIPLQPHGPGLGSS

CYP3A [10] = test: in vitro; type: in vitro ADME
MATE2‐K = MATE2‐K (Homo sapiens, UniProt Q86VL8); test: In vitro transporter inhibition; type: in vitro ADME
OATP1B1 [11] = molecular target: T2, OATP1B1; test: In vitro transporter inhibition; type: in vitro ADME
BCRP = BCRP (Homo sapiens, UniProt Q9UNQ0); test: In vitro transporter substrate assessment; type: in vitro ADME
CYP2C9 = CYP2C9 (Homo sapiens, UniProt P11712); test: In vitro CYP inhibition; type: in vitro ADME
[12] = both phase 3 studies; cited from earlier work
[13] = Phase 1 DDI study 004 part A: lemborexant plasma PK with/without rifampin; type: in vivo, human
P‐gp [14] = molecular target: T3, P‐gp; test: In vitro transporter substrate assessment; type: in vitro ADME
OAT1 = OAT1 (Homo sapiens, UniProt Q4U2R8); test: In vitro transporter inhibition; type: in vitro ADME
CYP3A [15] = type: in vitro ADME; conditions: in vitro
OATP1B3 [16] = molecular target: T1, OATP1B3; test: In vitro transporter inhibition; type: in vitro ADME
[17] = Phase 1 DDI study 012: lemborexant plasma PK with/without fluconazole; type: in vivo, human; conditions: for AUC: human, plasma
OCT1 = OCT1 (Homo sapiens, UniProt O15245); test: In vitro transporter inhibition; type: in vitro ADME
OCT1, sequence (O15245 whole entry): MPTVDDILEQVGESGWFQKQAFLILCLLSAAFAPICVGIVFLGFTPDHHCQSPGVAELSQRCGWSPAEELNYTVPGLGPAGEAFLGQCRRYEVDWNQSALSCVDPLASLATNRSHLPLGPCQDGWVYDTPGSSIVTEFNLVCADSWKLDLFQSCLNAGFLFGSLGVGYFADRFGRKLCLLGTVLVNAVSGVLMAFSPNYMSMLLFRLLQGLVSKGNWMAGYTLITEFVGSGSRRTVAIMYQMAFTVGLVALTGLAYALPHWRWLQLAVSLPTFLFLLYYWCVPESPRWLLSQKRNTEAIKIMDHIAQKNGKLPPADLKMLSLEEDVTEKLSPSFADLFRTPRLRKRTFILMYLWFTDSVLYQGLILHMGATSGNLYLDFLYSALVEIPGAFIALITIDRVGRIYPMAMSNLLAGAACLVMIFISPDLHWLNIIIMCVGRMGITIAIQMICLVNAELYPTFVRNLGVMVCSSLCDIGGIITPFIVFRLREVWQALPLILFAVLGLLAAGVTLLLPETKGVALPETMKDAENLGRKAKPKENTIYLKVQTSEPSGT

MATE1 = MATE1 (Homo sapiens, UniProt Q96FL8); test: In vitro transporter inhibition; type: in vitro ADME
CYP2C19 = CYP2C19 (Homo sapiens, UniProt P33261); test: In vitro CYP inhibition; type: in vitro ADME
CYP2C19, sequence (P33261 whole entry): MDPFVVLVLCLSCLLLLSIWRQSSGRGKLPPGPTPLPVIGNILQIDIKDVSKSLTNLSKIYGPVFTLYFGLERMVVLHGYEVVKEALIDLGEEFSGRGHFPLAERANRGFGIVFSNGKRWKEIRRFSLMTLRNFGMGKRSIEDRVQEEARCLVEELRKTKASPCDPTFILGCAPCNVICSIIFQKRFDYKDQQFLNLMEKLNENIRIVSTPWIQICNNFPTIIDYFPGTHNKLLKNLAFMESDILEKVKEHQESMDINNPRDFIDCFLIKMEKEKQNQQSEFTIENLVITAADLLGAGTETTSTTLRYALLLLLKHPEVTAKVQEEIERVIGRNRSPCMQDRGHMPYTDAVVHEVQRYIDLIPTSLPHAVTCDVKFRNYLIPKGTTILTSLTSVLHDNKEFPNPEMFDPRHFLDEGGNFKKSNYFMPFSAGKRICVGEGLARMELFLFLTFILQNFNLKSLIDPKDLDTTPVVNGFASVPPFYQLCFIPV

[18] = molecular target: breast cancer resistance protein (Homo sapiens, UniProt Q9UNQ0); test: In vitro transporter inhibition; type: in vitro ADME
[19] = coadministration with itraconazole
[20] = lemborexant + itraconazole / lemborexant alone
[21] = lemborexant + rifampin / lemborexant alone
[22] = coadministration with fluconazole
[23] = lemborexant + fluconazole / lemborexant alone

T2 sequence (Q9Y6L6 whole entry): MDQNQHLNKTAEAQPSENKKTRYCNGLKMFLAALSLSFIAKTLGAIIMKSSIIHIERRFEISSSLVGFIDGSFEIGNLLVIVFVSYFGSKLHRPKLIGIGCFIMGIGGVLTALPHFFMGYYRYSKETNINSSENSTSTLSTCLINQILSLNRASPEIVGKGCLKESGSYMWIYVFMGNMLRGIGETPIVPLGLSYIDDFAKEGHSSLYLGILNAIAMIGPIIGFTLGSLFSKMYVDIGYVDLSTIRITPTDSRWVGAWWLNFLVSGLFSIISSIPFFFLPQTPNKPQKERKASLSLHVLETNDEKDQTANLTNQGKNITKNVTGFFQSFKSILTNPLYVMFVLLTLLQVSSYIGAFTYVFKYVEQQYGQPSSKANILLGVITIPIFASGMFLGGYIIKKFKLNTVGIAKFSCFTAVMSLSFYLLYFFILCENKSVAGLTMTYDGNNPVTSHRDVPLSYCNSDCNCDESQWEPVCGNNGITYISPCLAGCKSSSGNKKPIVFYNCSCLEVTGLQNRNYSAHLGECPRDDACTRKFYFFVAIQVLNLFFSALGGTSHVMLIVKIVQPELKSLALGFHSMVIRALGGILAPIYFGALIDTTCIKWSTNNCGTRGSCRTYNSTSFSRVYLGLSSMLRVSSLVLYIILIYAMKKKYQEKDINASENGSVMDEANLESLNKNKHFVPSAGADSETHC
T1 sequence (Q9NPD5 whole entry): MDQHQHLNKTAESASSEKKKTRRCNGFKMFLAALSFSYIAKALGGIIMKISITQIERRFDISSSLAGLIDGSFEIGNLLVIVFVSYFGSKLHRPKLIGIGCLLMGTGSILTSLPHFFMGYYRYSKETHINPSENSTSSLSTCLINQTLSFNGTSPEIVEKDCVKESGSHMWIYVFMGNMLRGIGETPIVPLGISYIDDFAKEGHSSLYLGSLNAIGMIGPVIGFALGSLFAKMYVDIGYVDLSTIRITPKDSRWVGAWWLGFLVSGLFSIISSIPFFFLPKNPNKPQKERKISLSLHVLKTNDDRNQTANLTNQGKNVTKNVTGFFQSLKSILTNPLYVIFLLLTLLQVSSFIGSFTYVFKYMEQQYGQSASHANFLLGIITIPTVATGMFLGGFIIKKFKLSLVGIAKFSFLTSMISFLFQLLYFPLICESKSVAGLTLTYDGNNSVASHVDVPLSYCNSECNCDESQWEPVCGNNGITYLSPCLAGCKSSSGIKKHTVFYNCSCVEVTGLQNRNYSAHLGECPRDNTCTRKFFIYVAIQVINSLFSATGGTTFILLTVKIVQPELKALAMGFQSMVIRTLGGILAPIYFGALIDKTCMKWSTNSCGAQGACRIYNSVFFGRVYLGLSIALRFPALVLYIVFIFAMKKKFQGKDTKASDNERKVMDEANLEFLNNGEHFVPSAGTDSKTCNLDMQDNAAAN

Cc1ncc(OC[C@@]2(c3cccc(F)c3)C[C@H]2C(=O)Nc2ccc(F)cn2)c(C)n1 [Lemborexant, (1R,2S)‐2‐{[(2,4‐dimethylpyrimidin‐5‐yl)oxy]methyl}‐2‐(3‐fluorophenyl)‐N‐(5‐fluoropyridin‐2‐yl)cyclopropanecarboxamide]
inhibition of OCT2 (OCT2): do not inhibit
substrate of OATP1B3 (OATP1B3 [1]): neither lemborexant nor M10 was a substrate
substrate of OATP1B1 (OATP1B1 [2]): neither lemborexant nor M10 was a substrate
inhibition of CYP2E1 (CYP2E1): do not inhibit
higher exposure with weak CYP3A inhibitors ([3]; average, with versus without weak CYP3A inhibitors): 30%
estimated lemborexant exposure ([3]; subjects coadministered weak CYP3A inhibitors, n = 15, studies 303 and 304): 420 ng·h/mL
estimated lemborexant exposure ([3]; subjects not coadministered weak CYP3A inhibitors, n = 257, studies 303 and 304): 330 ng·h/mL
degree of CYP3A inhibition (exposure ratio) ([3]; with versus without weak CYP3A inhibitors): 1.3 fold
inhibition of CYP2B6 (CYP2B6 [4]): do not inhibit
inhibition of P‐gp (P‐gp [5]): do not inhibit
induction of CYP2B6 (CYP2B6 [6]): have the potential to induce
inhibition of CYP2C8 (CYP2C8): do not inhibit
inhibition of bile salt export pump (bile salt export pump): do not inhibit
inhibition of CYP2D6 (CYP2D6): do not inhibit
clinical effect on CYP2B6 [7]: has the potential to induce CYP2B6
increase in lemborexant AUC0–inf [8, 19]: 3.7 fold
increase in lemborexant Cmax [8, 19]: 1.4 fold
half-life ([8]; human, plasma, 10 mg): 54.4 h
AUC ([8]; human, plasma, 10 mg, AUC0‐inf, Geometric LSM, lemborexant 10 mg alone, n = 15, itraconazole cohort): 433 ng·h/mL
AUC ([8]; human, plasma, 10 mg, AUC0‐inf, Mean (SD), lemborexant 10 mg alone, itraconazole cohort): 464 ng·h/mL
AUC ([8]; human, plasma, 10 mg, AUC0‐t, Mean (SD), lemborexant 10 mg alone, itraconazole cohort): 437 ng·h/mL
AUC ([8]; human, plasma, AUC0‐inf, Geometric LSM, lemborexant 10 mg + itraconazole 200 mg, n = 11): 1600 ng·h/mL
AUC ([8]; human, plasma, AUC0‐inf, Mean (SD), lemborexant 10 mg + itraconazole 200 mg): 1640 ng·h/mL
AUC ([8]; human, plasma, AUC0‐t, Geometric LSM, lemborexant 10 mg + itraconazole 200 mg once daily, n = 14): 1480 ng·h/mL
AUC ([8]; human, plasma, AUC0‐t, Mean (SD), lemborexant 10 mg + itraconazole 200 mg): 1540 ng·h/mL
Cmax ([8]; human, plasma, Cmax, Mean (SD), lemborexant 10 mg + itraconazole 200 mg): 75 ng/mL
AUC0‐inf, Geometric Mean Ratio (90%CI) [8, 20]: 3.702 (3.183‐4.306)
AUC0‐t, Geometric Mean Ratio (90%CI) [8, 20]: 3.605 (3.122‐4.162)
Cmax, Geometric Mean Ratio (90%CI) [8, 20]: 1.360 (1.181‐1.567)
inhibition of CYP2A6 (CYP2A6): do not inhibit
inhibition of CYP1A2 (CYP1A2): do not inhibit
metabolic pathway (CYP3A [9]): predominantly metabolized by the cytochrome P450 3A (CYP3A) pathway
inhibition of OAT3 (OAT3): do not inhibit
KI (inactivation) (CYP3A [10]): 25.2 µM
inhibition at 30 μmol/L (CYP3A [10]): 61.5%
kinact (CYP3A [10]): 0.000838 s⁻¹
inhibition of MATE2‐K (MATE2‐K): do not inhibit
inhibition of OATP1B1 (OATP1B1 [11]): do not inhibit
substrate of BCRP (BCRP): neither lemborexant nor M10 was a substrate
inhibition of CYP2C9 (CYP2C9): do not inhibit
tolerability [12]: well tolerated
decrease in lemborexant AUC0‐inf ([13]; coadministration with rifampin): > 90%
decrease in lemborexant Cmax ([13]; coadministration with rifampin): > 90%
half-life ([13]; human, plasma, 10 mg): 45.6 h
AUC ([13]; human, plasma, 10 mg, AUC0‐inf, Geometric LSM, lemborexant 10 mg alone, n = 15, rifampin cohort): 389 ng·h/mL
AUC ([13]; human, plasma, 10 mg, AUC0‐inf, Mean (SD), lemborexant 10 mg alone, rifampin cohort): 428 ng·h/mL
AUC ([13]; human, plasma, 10 mg, AUC0‐t, Mean (SD), lemborexant 10 mg alone, rifampin cohort): 409 ng·h/mL
Cmax ([13]; human, plasma, 10 mg, Geometric LSM, lemborexant 10 mg alone, n = 15, rifampin cohort): 55.5 ng/mL
Cmax ([13]; human, plasma, 10 mg, Mean (SD), lemborexant 10 mg alone, rifampin cohort): 58.9 ng/mL
AUC ([13]; human, plasma, AUC0‐inf, Geometric LSM, lemborexant 10 mg + rifampin 600 mg, n = 9): 13.4 ng·h/mL
AUC ([13]; human, plasma, AUC0‐inf, Mean (SD), lemborexant 10 mg + rifampin 600 mg): 15.8 ng·h/mL
AUC ([13]; human, plasma, AUC0‐t, Geometric LSM, lemborexant 10 mg + rifampin 600 mg once daily, n = 15): 12.3 ng·h/mL
AUC ([13]; human, plasma, AUC0‐t, Mean (SD), lemborexant 10 mg + rifampin 600 mg): 13.5 ng·h/mL
Cmax ([13]; human, plasma, Geometric LSM, lemborexant 10 mg + rifampin 600 mg, n = 15): 4.7 ng/mL
Cmax ([13]; human, plasma, Mean (SD), lemborexant 10 mg + rifampin 600 mg): 5.3 ng/mL
AUC0‐inf, Geometric Mean Ratio (90%CI) [13, 21]: 0.034 (0.026‐0.045)
AUC0‐t, Geometric Mean Ratio (90%CI) [13, 21]: 0.033 (0.027‐0.040)
Cmax, Geometric Mean Ratio (90%CI) [13, 21]: 0.085 (0.067‐0.107)
substrate of P‐gp (P‐gp [14]): potential poor substrate
inhibition of OAT1 (OAT1): do not inhibit
induction of CYP3A (CYP3A [15]): have the potential to induce
inhibition of OATP1B3 (OATP1B3 [16]): do not inhibit
increase in lemborexant AUC0–inf [17, 22]: ~4 fold
increase in lemborexant Cmax [17, 22]: 1.6 fold
AUC ([17]; AUC0‐inf, Geometric LSM, lemborexant 10 mg + fluconazole 200 mg, n = 12): 1560 ng·h/mL
AUC ([17]; AUC0‐inf, Mean (SD), lemborexant 10 mg + fluconazole 200 mg): 1540 ng·h/mL
AUC ([17]; AUC0‐t, Geometric LSM, lemborexant 10 mg + fluconazole 200 mg once daily, n = 14): 1330 ng·h/mL
AUC ([17]; AUC0‐t, Mean (SD), lemborexant 10 mg + fluconazole 200 mg): 1360 ng·h/mL
AUC0‐inf, Geometric Mean Ratio (90%CI) [17, 23]: 4.175 (3.828‐4.553)
AUC0‐t, Geometric Mean Ratio (90%CI) [17, 23]: 3.759 (3.486‐4.053)
Cmax, Geometric Mean Ratio (90%CI) [17, 23]: 1.622 (1.336‐1.969)
inhibition of OCT1 (OCT1): do not inhibit
inhibition of MATE1 (MATE1): do not inhibit
inhibition of CYP2C19 (CYP2C19): do not inhibit
inhibition of breast cancer resistance protein [18]: do not inhibit
